Data on 27 compounds can be found in patent US20260078130A1, “NAMPT MODULATORS, PREPARATIONS, AND USES THEREOF” (SIRONAX LTD., priority 2022, published 2026).

The experiment deals with T1, human enzyme NAMPT (full length) (Homo sapiens, UniProt P43490).
T1 construct: human enzyme NAMPT (full length)
The experiment can be described thus: NMN fluorescence biochemical assay (stimulation of NMN synthesis by NAMPT). To be noted: for EC50: concentration giving half-maximal activation, read-out: Enzymatic EC50; for Enzymatic Emax: fold change of maximal activation compared to DMSO. The procedure:
Certain compounds described herein were assayed for their ability to stimulate the synthesis of nicotinamide mononucleotide (NMN) by human enzyme NAMPT (full length). The enzymatic assay was performed in a 384-well plate using a TMD buffer (50 mM Tris-HCl, 10 mM MgCl2, 2 mM DTT, pH 7.5). Purified NAMPT (100 nM) was pre-incubated with 0.2 μL. DMSO solution of the test compound (with a series of concentrations) in 10 μL TMD buffer for 15 min at 37° C. The reaction was initiated by adding 10 μL solution of NAM (50 μM), PRPP (100 μM), and ATP (4 mM) in TMD buffer. After 1 h of incubation at 37 T, an aliquot (20 μL) of the NMN-containing sample was sequentially mixed with 5 μL of 20% acetophenone (in DMSO) and 5 μL of 2M KOH. The mixture was placed on ice for 10 min. Next, 22.5 μL of 100% formic acid was added to each sample, vortexed, and then incubated at 37° C. for 20 min. Fluorescence (Ex/Em=382/445 nm) was measured using an Envision plate reader. The potency measurements for the test compounds were quantified and represented as EC50 (concentration of a compound that gives half-maximal activation) and Emax (fold change of a compound's maximal activation compared to DMSO).

Setting [1] is: NMN synthesis by purified human NAMPT (100 nM).
The mark [2] stands for this setting: NMN fluorescence assay, purified human NAMPT 100 nM.

Like-named read-outs stand apart in the source and are kept apart here.

T1 sequence (P43490 whole entry): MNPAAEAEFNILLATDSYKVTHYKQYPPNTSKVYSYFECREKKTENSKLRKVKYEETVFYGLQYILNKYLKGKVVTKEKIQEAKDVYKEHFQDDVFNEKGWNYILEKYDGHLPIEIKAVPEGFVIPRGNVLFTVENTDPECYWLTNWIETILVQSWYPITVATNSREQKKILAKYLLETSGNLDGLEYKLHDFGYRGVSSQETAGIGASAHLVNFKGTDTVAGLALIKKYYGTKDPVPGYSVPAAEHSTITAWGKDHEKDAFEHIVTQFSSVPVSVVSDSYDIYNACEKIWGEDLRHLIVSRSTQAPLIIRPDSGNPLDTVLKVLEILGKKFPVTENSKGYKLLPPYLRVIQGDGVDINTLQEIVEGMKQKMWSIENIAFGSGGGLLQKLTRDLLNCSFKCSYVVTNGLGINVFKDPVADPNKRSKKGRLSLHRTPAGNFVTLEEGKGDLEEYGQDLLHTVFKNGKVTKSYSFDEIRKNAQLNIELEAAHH

For the compound `Cc1cc(CC2c3ccccc3C(=O)N2Cc2ccc3[nH]c(=O)oc3c2)ccn1` (stereo not drawn) [Compound 179, 6-((1-((2-methylpyridin-4-yl)methyl)-3-oxoisoindolin-2-yl)methyl)benzo[d]oxazol-2(3H)-one], the “Enzymatic Emax” value is reported as “B (3≥B>2)”. In addition, the concentration for a half-maximal effect (EC50) (commonly the concentration at which the effect is half-maximal) under setting [1] is at least 5 µM.
Consider `Cn1ncc(Cl)c1CC1c2ccccc2C(=O)N1C[C@]1(F)C[C@]2(CNC(=O)O2)C1` (stereo partly drawn) [Compound 507, (2s,4s)-2-((1-((4-chloro-1-methyl-1H-pyrazol-5-yl)methyl)-3-oxoisoindolin-2-yl)methyl)-2-fluoro-5-oxa-7-azaspiro[3.4]octan-6-one], for which the “Enzymatic Emax” value is given as “B (3≥B>2)”. The EC50 under setting [2] is at least 5 µM.
Take `O=C1c2ccccc2C(Cc2ncccc2Br)N1Cc1cnc2[nH]c(=O)oc2c1` (stereo not drawn) [Compound 222, 6-((1-((3-bromopyridin-2-yl)methyl)-3-oxoisoindolin-2-yl)methyl)oxazolo[4,5-b]pyridin-2(3H)-one]: the “Enzymatic Emax” value is on record as “B (3≥B>2)”. Moreover, under setting [1], the concentration for a half-maximal effect (EC50) is at least 5 µM.
Consider `Cc1cc(Cl)n(CC2c3ccccc3C(=O)N2Cc2ccc3[nH]nnc3c2)n1` (stereo not drawn) [Compound 355, 2-((1H-benzo[d][1,2,3]triazol-5-yl)methyl)-3-((5-chloro-3-methyl-1H-pyrazol-1-yl)methyl)isoindolin-1-one], for which the “Enzymatic Emax” value is reported as “A (A>3)”. Moreover, under setting [2], the EC50 is at least 5 µM.
As for `O=C1c2ccccc2C(Cc2ccc(F)cn2)N1Cc1ccc2[nH]c(=O)oc2c1` (stereo not drawn) [Compound 194, 6-((1-((5-fluoropyridin-2-yl)methyl)-3-oxoisoindolin-2-yl)methyl)benzo[d]oxazol-2(3H)-one], the “Enzymatic Emax” value is “B (3≥B>2)”. Also, under setting [1], the EC50 is 0.5 to 5 µM.
On to `CC(=O)Nc1ncc(CN2C(=O)c3ccccc3C2Cc2ncccc2Br)cn1` (stereo not drawn) [Compound 443, N-(5-((1-((3-bromopyridin-2-yl)methyl)-3-oxoisoindolin-2-yl)methyl)pyrimidin-2-yl)acetamide], for which the “Enzymatic Emax” value is listed as “C (2≥C)”. For the same compound, the concentration giving a half-maximal response (EC50) under setting [2] is 0.5 to 5 µM.
As to `Cn1nc(Cl)c(Cl)c1CC1c2ccccc2C(=O)N1C[C@H]1C[C@@]2(CNC(=O)O2)C1` (stereo partly drawn) [Compound 500, (2r,4r)-2-((1-((3,4-dichloro-1-methyl-1H-pyrazol-5-yl)methyl)-3-oxoisoindolin-2-yl)methyl)-5-oxa-7-azaspiro[3.4]octan-6-one], the “Enzymatic Emax” value is given as “C (2≥C)”. Under setting [2], the EC50 is 0.5 to 5 µM.
Take `COc1cccc2c1C(=O)N(CC1CC3(CNC(=O)O3)C1)C2Cc1c(Cl)cnn1C` (stereo not drawn) [Compound 433, 2-((1-((4-chloro-1-methyl-1H-pyrazol-5-yl)methyl)-4-methoxy-3-oxoisoindolin-2-yl)methyl)-5-oxa-7-azaspiro[3.4]octan-6-one]: the “Enzymatic Emax” value is on record as “B (3≥B>2)”. Besides, the half-maximal effective concentration (EC50) under setting [2] is 0.5 to 5 µM.
Consider `O=C1c2ccccc2C(Cc2ccc(Cl)cn2)N1Cc1ccc2[nH]c(=O)oc2c1` (stereo not drawn) [Compound 196, 6-((1-((5-chloropyridin-2-yl)methyl)-3-oxoisoindolin-2-yl)methyl)benzo[d]oxazol-2(3H)-one], for which the “Enzymatic Emax” value is listed as “B (3≥B>2)”. Moreover, the 50% effective concentration (EC50) under setting [1] lay in the range of 0.5 to 5 µM.
Regarding `Cn1ncc(Cl)c1CC1c2ccccc2C(=O)N1Cc1nn[nH]c1F` (stereo not drawn) [Compound 630, 3-((4-chloro-1-methyl-1H-pyrazol-5-yl)methyl)-2-((5-fluoro-1H-1,2,3-triazol-4-yl)methyl)isoindolin-1-one], the “Enzymatic Emax” value is listed as “C (2≥C)”. Also, the EC50 under setting [2] was at least 5 µM.
As to `Cc1ccc2c(c1)C(=O)N(Cc1ccc(O)cc1)C2` [Compound 32, 2-(4-hydroxybenzyl)-6-methylisoindolin-1-one], the “Enzymatic Emax” value was “A (A>3)”. For the same compound, under setting [1], the EC50 is at least 5 µM.
Turning to `N#Cc1cccc(CC2c3ccccc3C(=O)N2Cc2ccc3[nH]c(=O)oc3c2)n1` (stereo not drawn) [Compound 219, 6-((3-oxo-2-((2-oxo-2,3-dihydrobenzo[d]oxazol-6-yl)methyl)isoindolin-1-yl)methyl)picolinonitrile], the “Enzymatic Emax” value was “B (3≥B>2)”. For the same compound, under setting [1], the 50% effective concentration (EC50) was 0.5 to 5 µM.
As to `Cn1ncc(Cl)c1CC1c2ccccc2C(=O)N1CC1CC2(COC2)C1` (stereo not drawn) [Compound 564, 2-((2-oxaspiro[3.3]heptan-6-yl)methyl)-3-((4-chloro-1-methyl-1H-pyrazol-5-yl)methyl)isoindolin-1-one], the “Enzymatic Emax” value is on record as “C (2≥C)”. Under setting [2], the EC50 was at least 5 µM.
In the case of `O=C1c2ccccc2C(Cc2ncccc2Br)N1Cc1cc[nH]c(=O)c1` (stereo not drawn) [Compound 266, 3-((3-bromopyridin-2-yl)methyl)-2-((2-oxo-1,2-dihydropyridin-4-yl)methyl)isoindolin-1-one], the “Enzymatic Emax” value is listed as “A (A>3)”. The EC50 under setting [1] is at least 5 µM.
Regarding `Cn1ncc(Cl)c1CC1(C)c2ccccc2C(=O)N1CC1CC2(CNC(=O)O2)C1` (stereo not drawn) [Compound 445, 2-((1-((4-chloro-1-methyl-1H-pyrazol-5-yl)methyl)-1-methyl-3-oxoisoindolin-2-yl)methyl)-5-oxa-7-azaspiro[3.4]octan-6-one], the “Enzymatic Emax” value is recorded as “B (3≥B>2)”. Also, the EC50 under setting [2] was at least 5 µM.
With `O=C1c2ccccc2C(Cc2cccnc2F)N1Cc1ccc2[nH]c(=O)oc2c1` (stereo not drawn) [Compound 183, 6-((1-((2-fluoropyridin-3-yl)methyl)-3-oxoisoindolin-2-yl)methyl)benzo[d]oxazol-2(3H)-one], the “Enzymatic Emax” value is listed as “B (3≥B>2)”. Also, the 50% effective concentration (EC50) under setting [1] is 0.5 to 5 µM.
The matching figures for `O=C1c2ccccc2C(Cc2ncccc2Br)N1Cc1ccn2c(=O)[nH]nc2c1` (stereo not drawn) [Compound 281, 7-((1-((3-bromopyridin-2-yl)methyl)-3-oxoisoindolin-2-yl)methyl)-[1,2,4]triazolo[4,3-a]pyridin-3(2H)-one]: “C (2≥C)” and at least 5 µM.
Take `Nc1ccccc1CC1c2ccccc2C(=O)N1Cc1ccc2[nH]c(=O)oc2c1` (stereo not drawn) [Compound 208, 6-((1-(2-aminobenzyl)-3-oxoisoindolin-2-yl)methyl)benzo[d]oxazol-2(3H)-one]: the “Enzymatic Emax” value was “B (3≥B>2)”. In addition, under setting [1], the EC50 is 0.5 to 5 µM.
The matching figures for `Cn1ncc(Cl)c1C[C@@H]1c2ccccc2C(=O)N1C/C=C/c1c[nH]nn1` [Compound 313, (R,E)-2-(3-(1H-1,2,3-triazol-4-yl)allyl)-3-((4-chloro-1-methyl-1H-pyrazol-5-yl)methyl)isoindolin-1-one]: “C (2≥C)” and at least 5 µM.
In the case of `Cc1n[nH]cc1/C=C(/F)CN1C(=O)c2ccccc2C1Cc1c(Cl)cnn1C` (stereo not drawn) [Compound 504, (E)-3-((4-chloro-1-methyl-1H-pyrazol-5-yl)methyl)-2-(2-fluoro-3-(3-methyl-1H-pyrazol-4-yl)allyl)isoindolin-1-one], the “Enzymatic Emax” value is reported as “B (3≥B>2)”. Further, the concentration giving a half-maximal response (EC50) under setting [2] is 0.5 to 5 µM.
The like results for `O=C1N[C@H]2CCC(CN3C(=O)c4ccccc4C3Cc3ncccc3Br)C[C@@H]2O1` (relative stereo) [Compound 466, trans-6-((1-((3-bromopyridin-2-yl)methyl)-3-oxoisoindolin-2-yl)methyl)hexahydrobenzo[d]oxazol-2(3H)-one] were, in that order, “C (2≥C)” and at least 5 µM.
As for `CC1c2cccc(-c3cccnc3)c2C(=O)N1Cc1ccc2[nH]c(=O)oc2c1` (stereo not drawn) [Compound 244, 6-((1-methyl-3-oxo-4-(pyridin-3-yl)isoindolin-2-yl)methyl)benzo[d]oxazol-2(3H)-one], the “Enzymatic Emax” value is “B (3≥B>2)”. The EC50 under setting [1] is at least 5 µM.
For `Cn1ncc(Cl)c1CC1c2ccccc2C(=O)N1CC1CCc2[nH]nnc21` (stereo not drawn) [Compound 457, 3-((4-chloro-1-methyl-1H-pyrazol-5-yl)methyl)-2-((1,4,5,6-tetrahydrocyclopenta[d][1,2,3]triazol-4-yl)methyl)isoindolin-1-one], the “Enzymatic Emax” value is reported as “C (2≥C)”. Further, the EC50 under setting [2] was at least 5 µM.
In the case of `COc1ccc(CC2c3ccccc3C(=O)N2Cc2ccc3[nH]c(=O)oc3c2)cc1` (stereo not drawn) [Compound 213, 6-((1-(4-methoxybenzyl)-3-oxoisoindolin-2-yl)methyl)benzo[d]oxazol-2(3H)-one], the “Enzymatic Emax” value was “A (A>3)”. The EC50 under setting [1] fell in the range of 0.5 to 5 µM.
On to `Cn1cc(C#CCN2C(=O)c3ccccc3C2Cc2c(Cl)cnn2C)cn1` (stereo not drawn) [Compound 501, 3-((4-chloro-1-methyl-1H-pyrazol-5-yl)methyl)-2-(3-(1-methyl-1H-pyrazol-4-yl)prop-2-yn-1-yl)isoindolin-1-one], for which the “Enzymatic Emax” value is recorded as “C (2≥C)”. Besides, the EC50 under setting [2] was 0.5 to 5 µM.
For the compound `CC1c2c(Br)cccc2C(=O)N1Cc1ccc2[nH]c(=O)oc2c1` (stereo not drawn) [Compound 247, 6-((4-bromo-3-methyl-1-oxoisoindolin-2-yl)methyl)benzo[d]oxazol-2(3H)-one], the “Enzymatic Emax” value is listed as “B (3≥B>2)”. For the same compound, under setting [1], the EC50 was at least 5 µM.
For `CN(C)c1ccc2c(c1)C(Cc1c(Cl)cnn1C)N(CC1CC3(CNC(=O)O3)C1)C2=O` (stereo not drawn) [Compound 498, 2-((3-((4-chloro-1-methyl-1H-pyrazol-5-yl)methyl)-5-(dimethylamino)-1-oxoisoindolin-2-yl)methyl)-5-oxa-7-azaspiro[3.4]octan-6-one], the “Enzymatic Emax” value was “B (3≥B>2)”. Under setting [2], the concentration giving a half-maximal response (EC50) is under 0.5 µM.
